Data: PubChem BioAssay (NCI)
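Tested at 5 concentrations; 48 h exposure; 96-well plates; endpoints linearly interpolated, else capped at highest concentration. TGI is the concentration that stops growth completely.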

What was measured:
Experiment in all cases: NCI anticancer screen, dose series, 48 h
786-0 renal = test system: 786-0 renal
A498 renal = test system: A498 renal
ACHN renal = test system: ACHN renal
BT-549 breast = test system: BT-549 breast
CAKI-1 renal = test system: CAKI-1 renal
CCRF-CEM leukemia = test system: CCRF-CEM leukemia
COLO 205 colon = test system: COLO 205 colon
DU-145 prostate = test system: DU-145 prostate
EKVX NSCLC = test system: EKVX NSCLC
HCT-116 colon = test system: HCT-116 colon
HCT-15 colon = test system: HCT-15 colon
HL-60(TB) leukemia = test system: HL-60(TB) leukemia
HOP-62 NSCLC = test system: HOP-62 NSCLC
HS 578T breast = test system: HS 578T breast
HT29 colon = test system: HT29 colon
IGROV1 ovarian = test system: IGROV1 ovarian
K-562 leukemia = test system: K-562 leukemia
KM12 colon = test system: KM12 colon
LOX IMVI melanoma = test system: LOX IMVI melanoma
M14 melanoma = test system: M14 melanoma
MALME-3M melanoma = test system: MALME-3M melanoma
MCF7 breast = test system: MCF7 breast
MDA-MB-231 breast = test system: MDA-MB-231 breast
MDA-MB-435 = test system: MDA-MB-435
MDA-N = test system: MDA-N
MOLT-4 leukemia = test system: MOLT-4 leukemia
NCI-H226 lung = test system: NCI-H226 lung
NCI-H23 lung = test system: NCI-H23 lung
NCI-H460 lung = test system: NCI-H460 lung
NCI/ADR-RES ovarian = test system: NCI/ADR-RES ovarian
OVCAR-3 ovarian = test system: OVCAR-3 ovarian
OVCAR-5 ovarian = test system: OVCAR-5 ovarian
OVCAR-8 ovarian = test system: OVCAR-8 ovarian
PC-3 prostate = test system: PC-3 prostate
RPMI-8226 leukemia = test system: RPMI-8226 leukemia
RXF 393 renal = test system: RXF 393 renal
SF-268 CNS = test system: SF-268 CNS
SF-295 CNS = test system: SF-295 CNS
SF-539 CNS = test system: SF-539 CNS
SK-MEL-2 melanoma = test system: SK-MEL-2 melanoma
SK-MEL-28 melanoma = test system: SK-MEL-28 melanoma
SK-MEL-5 melanoma = test system: SK-MEL-5 melanoma
SK-OV-3 ovarian = test system: SK-OV-3 ovarian
SN12C renal = test system: SN12C renal
SNB-19 CNS = test system: SNB-19 CNS
SNB-75 CNS = test system: SNB-75 CNS
SR leukemia = test system: SR leukemia
SW-620 colon = test system: SW-620 colon
TK-10 renal = test system: TK-10 renal
U251 CNS = test system: U251 CNS
UACC-257 melanoma = test system: UACC-257 melanoma
UACC-62 melanoma = test system: UACC-62 melanoma
UO-31 renal = test system: UO-31 renal
A549 NSCLC = test system: A549 NSCLC
HCC-2998 colon = test system: HCC-2998 colon
NCI-H522 lung = test system: NCI-H522 lung
OVCAR-4 ovarian = test system: OVCAR-4 ovarian

Work on O=C(CN1CCOCC1)c1ccc2[nH]c(=O)oc2c1 yielded a TGI (786-0 renal) of over 100 µM, a TGI (A498 renal) of over 100 µM and a TGI (ACHN renal) of over 100 µM. For the same compound, the TGI (BT-549 breast) was over 100 µM, the TGI (CAKI-1 renal) was over 100 µM and the TGI (CCRF-CEM leukemia) was over 100 µM. The TGI (COLO 205 colon) was over 100 µM, the TGI (DU-145 prostate) was over 100 µM and the TGI (EKVX NSCLC) was over 100 µM. The TGI (HCT-116 colon) was over 100 µM, the TGI (HCT-15 colon) was over 100 µM and the TGI (HL-60(TB) leukemia) was over 100 µM. For the same compound, the TGI (HOP-62 NSCLC) was over 100 µM, the TGI (HS 578T breast) was over 100 µM and the TGI (HT29 colon) was over 100 µM. For the same compound, the TGI (IGROV1 ovarian) was over 100 µM, the TGI (K-562 leukemia) was over 100 µM and the TGI (KM12 colon) was over 100 µM. For the same compound, the TGI (LOX IMVI melanoma) was over 100 µM, the TGI (M14 melanoma) was over 100 µM and the TGI (MALME-3M melanoma) was over 100 µM. It also gave a TGI (MCF7 breast) of over 100 µM, a TGI (MDA-MB-231 breast) of over 100 µM and a TGI (MDA-MB-435) of over 100 µM. It also gave a TGI (MDA-N) of over 100 µM, a TGI (MOLT-4 leukemia) of over 100 µM and a TGI (NCI-H226 lung) of over 100 µM. It also gave a TGI (NCI-H23 lung) of over 100 µM, a TGI (NCI-H460 lung) of over 100 µM and a TGI (NCI/ADR-RES ovarian) of over 100 µM. For the same compound, the TGI (OVCAR-3 ovarian) was over 100 µM, the TGI (OVCAR-5 ovarian) was over 100 µM and the TGI (OVCAR-8 ovarian) was over 100 µM. For the same compound, the TGI (PC-3 prostate) was over 100 µM, the TGI (RPMI-8226 leukemia) was over 100 µM and the TGI (RXF 393 renal) was over 100 µM. It also gave a TGI (SF-268 CNS) of over 100 µM, a TGI (SF-295 CNS) of over 100 µM and a TGI (SF-539 CNS) of over 100 µM. It also gave a TGI (SK-MEL-2 melanoma) of over 100 µM, a TGI (SK-MEL-28 melanoma) of over 100 µM and a TGI (SK-MEL-5 melanoma) of over 100 µM. The TGI (SK-OV-3 ovarian) was over 100 µM, the TGI (SN12C renal) was over 100 µM and the TGI (SNB-19 CNS) was over 100 µM. It also gave a TGI (SNB-75 CNS) of over 100 µM, a TGI (SR leukemia) of over 100 µM and a TGI (SW-620 colon) of over 100 µM. The TGI (TK-10 renal) was over 100 µM, the TGI (U251 CNS) was over 100 µM and the TGI (UACC-257 melanoma) was over 100 µM. For the same compound, the TGI (UACC-62 melanoma) was over 100 µM and the TGI (UO-31 renal) was over 100 µM.

CSc1nc(C)cc(N(C)c2ccccc2)n1 showed a TGI (786-0 renal) of over 100 µM, a TGI (A498 renal) of over 100 µM and a TGI (A549 NSCLC) of over 100 µM. For the same compound, the TGI (ACHN renal) was over 100 µM, the TGI (CAKI-1 renal) was over 100 µM and the TGI (CCRF-CEM leukemia) was over 100 µM. The TGI (COLO 205 colon) was over 100 µM, the TGI (DU-145 prostate) was over 100 µM and the TGI (EKVX NSCLC) was over 100 µM. For the same compound, the TGI (HCC-2998 colon) was over 100 µM, the TGI (HCT-116 colon) was over 100 µM and the TGI (HCT-15 colon) was over 100 µM. It also gave a TGI (HL-60(TB) leukemia) of 61.9 µM, a TGI (HOP-62 NSCLC) of over 100 µM and a TGI (HS 578T breast) of 86.6 µM. The TGI (HT29 colon) was 49.5 µM, the TGI (IGROV1 ovarian) was over 100 µM and the TGI (K-562 leukemia) was over 100 µM. For the same compound, the TGI (KM12 colon) was 20 µM, the TGI (LOX IMVI melanoma) was over 100 µM and the TGI (M14 melanoma) was over 100 µM. It also gave a TGI (MALME-3M melanoma) of over 100 µM, a TGI (MCF7 breast) of 75.4 µM and a TGI (MDA-MB-231 breast) of 87.3 µM. For the same compound, the TGI (MDA-MB-435) was 53 µM, the TGI (MDA-N) was 61.3 µM and the TGI (MOLT-4 leukemia) was over 100 µM. For the same compound, the TGI (NCI-H226 lung) was 93.9 µM, the TGI (NCI-H23 lung) was 95.3 µM and the TGI (NCI-H460 lung) was over 100 µM. For the same compound, the TGI (NCI-H522 lung) was over 100 µM, the TGI (NCI/ADR-RES ovarian) was 63.6 µM and the TGI (OVCAR-3 ovarian) was 97.3 µM. For the same compound, the TGI (OVCAR-4 ovarian) was over 100 µM, the TGI (OVCAR-5 ovarian) was over 100 µM and the TGI (OVCAR-8 ovarian) was 93 µM. The TGI (PC-3 prostate) was over 100 µM, the TGI (RPMI-8226 leukemia) was over 100 µM and the TGI (RXF 393 renal) was over 100 µM. It also gave a TGI (SF-268 CNS) of over 100 µM, a TGI (SF-295 CNS) of over 100 µM and a TGI (SF-539 CNS) of 66 µM. For the same compound, the TGI (SK-MEL-2 melanoma) was over 100 µM, the TGI (SK-MEL-28 melanoma) was over 100 µM and the TGI (SK-MEL-5 melanoma) was 56.2 µM. The TGI (SK-OV-3 ovarian) was over 100 µM, the TGI (SN12C renal) was over 100 µM and the TGI (SNB-19 CNS) was over 100 µM. It also gave a TGI (SNB-75 CNS) of 94.3 µM, a TGI (SR leukemia) of 60.7 µM and a TGI (SW-620 colon) of over 100 µM. It also gave a TGI (TK-10 renal) of 98.9 µM, a TGI (U251 CNS) of over 100 µM and a TGI (UACC-257 melanoma) of 84 µM. For the same compound, the TGI (UACC-62 melanoma) was over 100 µM and the TGI (UO-31 renal) was over 100 µM.
